This note sets out measurements from PubChem BioAssay AID1549 (Sanford-Burnham Center for Chemical Genomics, 2009).

SMILES strings stand for the structures. Active and inactive are the calls of the source. No rule for the calls is given here. Bounds are passed on as bounds.

This experiment deals with Influenza A virus M2 proton channel (A/TW/4845/1999 H1N1). The experiment is described as follows: M2 proton channel binding, NMR based, influenza A virus H1N1 strain (AID 1549). The conditions noted are these: NMR binding screen, M2 protein.
What is called Kd is a measure of binding affinity in units of concentration. For the molecule `O=C(O)C(CO)c1ccccc1` (configuration not stated), the Kd is > 4 mM (inactive).

With `CC(=O)OCC(=O)[C@@]1(O)CCC2C3CC[C@@H]4C[C@H](OC(C)=O)CC[C@]4(C)C3C(=O)C[C@@]21C` (some centres not stated), the Kd is > 4 mM (inactive).

For `O=C1c2cccnc2C(=O)N1Cc1ccc2c(c1)OCO2`, the Kd is > 4 mM (inactive).

On to `O=C(Nc1cccc(Cl)c1)c1ccncc1`, for which the Kd was > 4 mM (inactive).

For `COc1ccc(C2NC(C(=O)O)CS2)cc1` (configuration not stated), the Kd is > 4 mM (inactive).

Take `C(=N\c1ncn[nH]1)/c1cccs1`: the Kd was > 4 mM (inactive).

As for `O=C(Nc1nnc(-c2ccco2)o1)c1ccc([N+](=O)[O-])o1`, the Kd is > 4 mM (inactive).

Regarding `COc1ccc(-c2coc3cc(O)ccc3c2=O)c(O)c1O`, the Kd is > 4 mM (inactive).

In the case of `C=C1C2CC[C@@]3(C)[C@H](c4ccoc4)OC(=O)C[C@]13O[C@H]1C[C@H](OC(C)=O)C(C)(C)[C@H](CC(=O)OC)[C@@]21C`, the Kd was > 4 mM (inactive).

Regarding `Cc1ccc(N2C(=O)C3C4C=CC(O4)C3C2=O)cc1` (configuration not stated), the Kd was > 4 mM (inactive).

For the molecule `O=C(O)C1Cc2ccccc2O1` (configuration not stated), the Kd was > 4 mM (inactive).

With `Nc1ccc(N2CCOCC2)cc1`, the Kd was > 4 mM (inactive).

As to `NCc1ccc(-n2cccc2)cc1`, the Kd is > 4 mM (inactive).

For `O=C(O)c1onc2ccccc12`, the Kd was > 4 mM (inactive).

For the molecule `O=C(NC(=S)NN1CCOCC1)c1cccs1`, the Kd is > 4 mM (inactive).

Take `OCc1ccc2nsnc2c1`: the Kd is > 4 mM (inactive).

Take `CC1(C)C=CC(=O)[C@@]2(C)C1CC(=O)[C@]1(C)C2CC[C@@]2(C)[C@H](c3ccoc3)OC(=O)C3OC321` (some centres not stated): the Kd was > 4 mM (inactive).

On to `Cc1ccc(-n2cnnn2)c2cccnc12`, for which the Kd was > 4 mM (inactive).

`NC(=O)CSc1nc2ccccc2[nH]1`: the Kd was > 4 mM (inactive).

Regarding `C=CCCCCCCCCCCCc1ccco1`, the Kd is > 4 mM (inactive).

Consider `Cn1cnc([N+](=O)[O-])c1Sc1ncnc2nc[nH]c12`, for which the Kd is > 4 mM (inactive).

On to `COc1ccccc1-c1noc(-c2ccco2)n1`, for which the Kd is > 4 mM (inactive).

With `Nc1cncc(C(=O)O)c1`, the Kd was > 4 mM (inactive).

`COC(=O)C1=C(C)N(c2cccc(C(C)=O)c2)C(=O)C1`: the Kd is > 4 mM (inactive).

In the case of `COC(=O)C[C@H]1C2(C)CC34OC5(C)O[C@@]6([C@H](OC)C(OC(=O)C(C)C)[C@]7(C)C(/C(=C(/OC)C(C)C)C(=O)O[C@H]7c7ccoc7)[C@@]6(O5)[C@H](OC)[C@@]3(OC)C2OC(C)=O)[C@]14C` (some centres not stated), the Kd is > 4 mM (inactive).

In the case of `CSc1ccccc1NC(=O)c1ccc(C)o1`, the Kd is > 4 mM (inactive).

In the case of `COC(=O)c1c(C)c2c(c(C)c1O)OC(=O)c1c(C)c(Cl)c(O)c(Cl)c1O2`, the Kd was > 4 mM (inactive).

Consider `COc1cc(-c2coc3cc(O[C@@H]4O[C@H](CO)[C@@H](O)[C@H](O)[C@H]4O)c(OC)c(O)c3c2=O)cc(O)c1OC`, for which the Kd is > 4 mM (inactive).

Turning to `O=C(Nc1cnccn1)c1cccs1`, the Kd was > 4 mM (inactive).

Take `NS(=O)(=O)c1ccc(NC(=O)/C=C\C(=O)O)cc1`: the Kd is > 4 mM (inactive).

Consider `Nc1cc(=O)[nH]c(SCC(=O)NCc2ccccc2)n1`, for which the Kd is > 4 mM (inactive).

Regarding `COC(=O)c1ccc2nccnc2c1`, the Kd is > 4 mM (inactive).

As for `CSc1cccc(NC(=O)c2c(Cl)cnn2C)c1`, the Kd was > 4 mM (inactive).

Regarding `CC(C)(C)NC(=O)CN1C(=O)c2ccccc2S1(=O)=O`, the Kd was > 4 mM (inactive).

Turning to `O=C(O)CCC(=O)c1cccc2ccccc12`, the Kd was > 4 mM (inactive).

Turning to `Oc1cccc(N2CCOCC2)c1`, the Kd was > 4 mM (inactive).

For `CC(=O)OC[C@H]1O[C@@H](Oc2cc(OC(C)=O)c3c(=O)cc(-c4ccc(OC(C)=O)cc4)oc3c2)[C@H](OC(C)=O)[C@@H](OC(C)=O)[C@@H]1OC(C)=O`, the Kd is > 4 mM (inactive).
